Measured values reported in patent US12404304B1, “Telomerase reverse transcriptase (TERT) expression enhancing compounds and methods for using the same” (Sierra Sciences, LLC, priority 2007, dated 2025).
Where two headings read alike, the source gives them in different places.

How the values were obtained:
[1] = system: human TERT expression (hTERT mRNA); assay: Quantitative real-time RT-PCR of hTERT mRNA expression (Ct, transcripts) in compound-treated cells; format: cell-based
How it was run: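 Read-out is cycle threshold, the cycle at which probe fluorescence released by Taq 5′-nuclease activity crosses a set level; Ct falls as hTERT mRNA rises. cDNA of treated and untreated cells was compared, with starting transcripts quantified against a known-cDNA standard curve.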

viable cells in culture [2] = system: viable cells in culture
Protocol: (§1) Cell viability is determined using a homogeneous method, such as CellTiter-Glo® Luminescent Cell Viability Assay (Promega Corporation, Madison, WI.) to determine the number of viable cells in culture These assays are based on quantitation of the ATP present, which signals the presence of metabolically active cells. Luminescent values of compound treated cells are compared to that of cells treated with vehicle alone to determine the average cell viability as a percent of control.

viable cells in culture [3] = assay: Cell viability assay (CellTiter-Glo Luminescent Cell Viability Assay, ATP quantitation, percent of vehicle control)
Protocol: as §1

Row | Structure (SMILES) | Average Number of hTERT Transcripts [1] | Average Cell Viability after 24 Hours (% DMSO) (viable cells in culture [2]) | Average Cell Viability after 24 Hours (% DMSO) (viable cells in culture [3])
1 | Fc1cc(Br)cc2c1NC(c1cccnc1)C1CC=CC21 (stereo not drawn) [compound 1457] | 12.20 | 57.76 % DMSO | –
2 | Fc1cc(F)c2c(c1)C1C=CCC1C(c1cccnc1)N2 (stereo not drawn) [compound 1463] | 174.29 | 62.06 % DMSO | –
3 | O=C(NCCc1c[nH]cn1)c1cc(-c2cccs2)on1 [compound 1523] | 513.46 | 87.71 % DMSO | –
4 | CC(C)(C)c1cc(-c2nc3ccccc3[nH]2)c(O)c(-c2nc3ccccc3[nH]2)c1 [compound 1555] | 52.10 | – | 90.08 % DMSO
5 | CSc1nc(C2CC2)cc(-c2ccccc2)c1C#N [compound 1556] | 85.40 | – | 90.02 % DMSO
6 | NCCC(=O)N[C@@H](Cc1cnc[nH]1)C(=O)O [compound 1557] | 54.80 | – | 97.77 % DMSO
